How the values were obtained:
Assay type in all cases: in vivo
[1] = tested on: barnyard grass (Eo); assay: Test Example 1: herbicidal effects by flooded paddy field treatment; conditions: dose 100 gai/10a, examined on 21st day after treatment, index 0-5 per Table 44;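 note: 0-5 growth inhibition grade; 5 = over 90%; 4 = 70-90%; 3 = 50-70%; 2 = 30-50%; 1 = 10-30%; 0 = under 10%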
How it was run: (§1)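 Puddled paddy soil in pots, seeds sown, 3 cm flood. Day after sowing: wettable powder diluted in water, applied dropwise to water surface, 100 g a.i./10 ares. Greenhouse; visual herbicidal rating at day 21 post-treatment.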

[2] = tested on: monochoria (Mo); assay: as above; conditions: dose 100 gai/10a, examined on 21st day after treatment, index 0-5 per Table 44
How it was run: as §1

[3] = tested on: barnyard grass (Ec); assay: Test Example 2: herbicidal effects by upland soil treatment; parameters: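 0-5 growth inhibition grade; 5 = over 90%; 4 = 70-90%; 3 = 50-70%; 2 = 30-50%; 1 = 10-30%; 0 = under 10%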; conditions: dose 100 g active ingredient per 10 ares, examined on the 21st day after treatment, standards of Table 44
How it was run: (§2)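 Pre-emergence test: barnyard grass and green foxtail sown in upland soil, then soil surface sprayed with wettable-powder formulation at 100 g active ingredient per 10 ares (100 l per 10 ares). Grown in greenhouse; herbicidal effect scored on a rating scale 21 days after treatment.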

[4] = tested on: green foxtail (Se); assay: as above; conditions: dose 100 g active ingredient per 10 ares, examined on the 21st day after treatment, standards of Table 44;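 note: 0-5 growth inhibition grade; 5 = over 90%; 4 = 70-90%; 3 = 50-70%; 2 = 30-50%; 1 = 10-30%; 0 = under 10%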
How it was run: as §2

[5] = tested on: barnyard grass (Ec); assay: Test Example 5: selectivity for a crop plant by soil treatment in upland field; parameters: scale not given here; conditions: dose 25 gai/10a, 21st day after treatment, index per Table 44
Procedure: (§3) In a 80 cm^2 plastic pot, upland soil was filled, and seeds of barnyard grass (Ec), green foxtail (Se), soybean (G1), wheat (Tr) and corn (Ze) were sown and covered with soil. A wettable powder prepared in accordance with Formulation Example 1 was diluted with water and uniformly applied to the soil surface by a small size spray at a rate of 100 l per 10 ares so that the dose of the active ingredient would be 25 g per 10 ares. Thereafter, cultivation was carried out in a green house, and on the 21st day after the treatment, the herbicidal effects were examined in accordance with the standards of Table 44.

[6] = tested on: corn (Ze); assay: as above; parameters: scale not given here; conditions: dose 25 gai/10a, 21st day after treatment, index per Table 44
Procedure: as §3

[7] = tested on: soybean (G1); assay: as above; parameters: scale not given here; conditions: dose 25 gai/10a, 21st day after treatment, index per Table 44
Procedure: as §3

[8] = tested on: wheat (Tr); assay: as above; parameters: scale not given here; conditions: dose 25 gai/10a, 21st day after treatment, index per Table 44
Procedure: as §3

[9] = tested on: barnyard grass (Eo); assay: Test Example 4: selectivity for a crop plant by flooded paddy field treatment; parameters: scale not given here; conditions: for Eo (herbicidal effects, index): dose 25 g active ingredient per 10 ares, examined on the 21st day after treatment
How it was run: (§4)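 Flooded paddy pots, 3 cm water; weeds sown from seed, rice transplanted at 2nd-leaf stage. Day after: wettable powder diluted in water, applied dropwise to water surface, 25 g a.i./10 a. Greenhouse; herbicidal effect rated at day 21.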

[10] = tested on: monochoria (Mo); assay: as above; parameters: scale not given here; conditions: for Mo (herbicidal effects, index): dose 25 g active ingredient per 10 ares, examined on the 21st day after treatment
How it was run: as §4

[11] = tested on: rice (Or); assay: as above; parameters: scale not given here; conditions: rice transplanted at second leaf stage; for Or (effect on crop plant rice, index): dose 25 g active ingredient per 10 ares, examined on the 21st day after treatment
How it was run: as §4

[12] = tested on: barnyard grass (Ec); assay: Test Example 3: herbicidal effects by foliage treatment in upland field; parameters: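 0-5 growth inhibition grade; 5 = over 90%; 4 = 70-90%; 3 = 50-70%; 2 = 30-50%; 1 = 10-30%; 0 = under 10%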; conditions: dose 100 g active ingredient per 10 ares, examined on the 14th day after treatment
How it was run: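 Barnyard grass and green foxtail were grown in upland soil for 2 weeks in a greenhouse. A water-diluted wettable powder was sprayed over the foliage at 100 l per 10 ares, giving 100 g active ingredient per 10 ares. Herbicidal effect was scored on day 14 after treatment.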
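Throughout, for Herbicidal effect index, Mo: 0-5 growth inhibition grade; 5 = over 90%; 4 = 70-90%; 3 = 50-70%; 2 = 30-50%; 1 = 10-30%; 0 = under 10%.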

SMILES | Herbicidal effect index, Eo [1] | Herbicidal effect index, Mo [2] | herbicidal effects, Ec (barnyard grass) [3] | herbicidal effects, Se (green foxtail) [4] | Ec (herbicidal effect index) [5] | Ze (herbicidal effect index on crop) [6] | Gl (herbicidal effect index on crop) [7] | Tr (herbicidal effect index on crop) [8] | Eo (herbicidal effects, index) [9] | Mo (herbicidal effects, index) [10] | Or (effect on crop plant rice, index) [11] | Ec (herbicidal effects, index) [12] | Eo (herbicidal effect index) ([9]; barnyard grass, dose 25 gai/10a, 21st day after treatment, index per Table 44) | Mo (herbicidal effect index) ([10]; monochoria, dose 25 gai/10a, 21st day after treatment, index per Table 44) | Or (herbicidal effect index on crop) ([11]; dose 25 gai/10a, 21st day after treatment, index per Table 44)
CC(C)C(c1cncnc1C(F)(F)F)N(C)C(=O)Cc1ccc(C#N)cc1 (racemic) [Compound 1-75] | 5 | 5 | 5 | 5 | 4 | 2 | 0 | 3 |  |  |  |  |  |  | 
COCc1ccc(CC(=O)N(C)C(c2cncnc2C(F)(F)F)C(C)C)cc1 (racemic) [Compound 1-76] | 5 | 5 | 5 | 5 | 4 | 2 | 0 | 2 | 5 | 5 | 0 |  |  |  | 
CC(C)C(c1cncnc1C(F)(F)F)N(C(=O)Cc1ccccc1)C1CC1 (racemic) [Compound 1-80] | 5 | 5 | 5 | 5 | 5 | 1 | 0 | 5 |  |  |  |  |  |  | 
CC(C)C(c1cncnc1C(F)(F)F)N(C)C(=O)C=Cc1ccccc1 (racemic) [Compound 1-85] | 5 | 5 | 5 | 5 | 4 | 0 | 0 | 1 | 5 | 5 | 0 |  |  |  | 
CC(C)C(c1cncnc1C(F)(F)F)N(C)C(=O)Cc1ccc(OC(F)(F)F)cc1 (racemic) [Compound 1-95] | 5 | 5 | 5 | 5 | 5 | 0 | 1 | 0 |  |  |  | 5 |  |  | 
CC(C)Oc1ccc(CC(=O)N(C)C(c2cncnc2C(F)(F)F)C(C)C)cc1 (racemic) [Compound 1-97] | 5 | 5 | 5 | 5 | 4 | 0 | 3 | 1 | 5 | 5 | 0 |  |  |  | 
CCCN(C(=O)Cc1ccc(C#N)cc1)C(c1cncnc1C(F)(F)F)C(C)C (racemic) [Compound 1-99] | 5 | 5 | 5 | 5 | 4 | 0 | 0 | 3 |  |  |  |  | 5 | 5 | 1
CC(C)C(c1cncnc1C(F)(F)F)N(C)C(=O)Cc1ccccc1F (racemic) [Compound 1-100] | 5 | 5 | 5 | 5 | 5 | 2 | 0 | 2 |  |  |  | 5 |  |  | 

Reference: patent publication US6806230B1, “Pyrimidine derivatives and herbicides containing them” (Kumiai Chemical Industry Co., Ltd., priority 1999, dated 2004)
